Like-named read-outs stand apart in the source and are kept apart here.

One data set relates to calf-thymus (ct)-DNA. As to conditions: literature values; cited from earlier work.
In a further data set the test system is poly[d(A-T)2]. As to conditions: second binding mode, circular dichroism; cited from earlier work.
In a further data set the test system is CH1 cell line. Description: in vitro cytotoxicity, sulforhodamine B growth inhibition assay. Format: cell-based, human. The conditions noted are these: 96 h exposure. The procedure:
(§1) The IC50 values of the bis-2,2':6',2"-terpyridine Pt(II) complexes (1, Z=trans-CH=CH-, Y=H), (1, Z=trans-CH=CH-, Y=Cl) and (1, Z=trans-CH=CH-, Y=4-Br.C6H4), were reported in PCT/GB97/00218 (WO97/27202) and referred to as A14, I14 and Q14 respectively. They were evaluated for in vitro cytotoxicity against five human ovarian carcinoma cell lines which included two selected for resistance to cisplatin (Ch1cis^R and A2780cis^R) and one for resistance to doxorubicin (Ch1dox^R). The compounds were exposed to cells for 96 h and growth inhibition assessed using the sulforhodamine B protein staining assay.

The subject of data set [1] is cisplatin resistant CH1 cell line (CH1cis^R). The description is as above. Format: cell-based, human. The conditions noted are these: 96 h exposure. Here is the method:
as §1

The test system of data set [2] is cell line SKOV3. The data set is described as above. The format is cell-based, human. The procedure: as §1
The next data set relates to DNA. As to conditions: intercalation into DNA, literature value [4]; cited from earlier work.
Data set [3] has as its system cell line SKOV3. As to conditions: reported in WO 97/27202; cited from earlier work.
For data set [4], the system named is cisplatin resistant CH1 cell line (CH1cis^R). The conditions noted are these: 96 h exposure, value reported in WO97/27202; cited from earlier work.
Data set [5] concerns doxirubicin resistant CH1 cell line. The format is cell-based, human. The conditions noted are these: doxirubicin resistant CH1 cell line versus CH1. Here is the method:
as §1

Data set [6] relates to A2780 cisplatin resistant cell line (A2780cis^R). Description: in vitro cytotoxicity, sulforhodamine B growth inhibition assay. The format is cell-based, human. Here is the method: as §1
A further data set concerns cell line A2780. The description is as above. Format: cell-based, human. The conditions noted are these: 96 h exposure. Here is the method:
as §1

Data set [7] can be described thus: maximum tolerated dose, single intraperitoneal injection. The format is in vivo. As to conditions: for loss of body weight: 25, 50 and 100 mg/kg i.p., body weight 2 weeks post-dosing; for deaths: single intraperitoneal injection at 25, 50 and 100 mg/kg; for signs of induced toxicity: single intraperitoneal injection. Here is the method:
The maximum tolerated dose was determined for A15(4NO3) and I15(4NO3).
Drugs were administered as a single intraperitoneal injection at 25, 50 and 100 mg/kg. Animals were observed daily for signs of induced toxicity and body weight determined 2 weeks post-dosing.

With “hydroxyethanethiolate-2,2':6',2"-terpyridine-platinum(II) [hydroxy-ethanethiolate complex]”, in the data set with calf-thymus (ct)-DNA, the “binding association constants with ct-DNA” value was 83000 M⁻¹.

As for `Cc1cc[n+]([Pt-2]23[n+]4ccccc4-c4cccc([n+]42)-c2cccc[n+]23)cc1.F[B-](F)(F)F.F[B-](F)(F)F` [4-Picoline-2,2':6',2"-terpyridine-platinum(II) bis-tetrafluoroborate], in the data set on poly[d(A-T)2], the equilibrium binding constant result is on record as “about 1 x10^6 M^-1”.

As for `Clc1cc2[n+]3c(c1)-c1cccc[n+]1[Pt-2]3([n+]1ccc(-c3cc[n+]([Pt-2]45[n+]6ccccc6-c6cc(Cl)cc([n+]64)-c4cccc[n+]45)cc3)cc1)[n+]1ccccc1-2.O=[N+]([O-])[O-].O=[N+]([O-])[O-].O=[N+]([O-])[O-].O=[N+]([O-])[O-]` [I18, 4,4'-Dipyridine bis[(4'-chloro-2,2':6',2"-terpyridine)platinum(II)] tetranitrate], the IC50 (with CH1 cell line; in data set [1]) was less than 1000 nM in each case. Also, the “antitumour activity compared with cisplatin” value in the data set with cell line SKOV3 [2] was “more effective than cisplatin”.

In the case of `F[B-](F)(F)F.[OH][Pt-2]12[n+]3ccccc3-c3cccc([n+]31)-c1cccc[n+]12` [hydroxy-platinum complex], the binding constant entry in the data set on DNA is listed as “approximately 7 x 10^4 M^-1”.

Turning to `[Cl-].[Cl-].[Pt+2].c1ccc(-c2cccc(-c3ccccn3)n2)nc1` [chloroplatinum complex], the “binding association constants with ct-DNA” value in the data set with calf-thymus (ct)-DNA is recorded as “essentially the same binding constant”.

In the case of “4,4'-vinylenedipyridine bis[2,2':6',2"-terpyridine platinum (II)] [A14 (4BF4)]”, the “antitumour activity compared with cisplatin” value with cell line SKOV3 [3] is reported as “more effective than cisplatin”. Further, in data set [4], the IC50 is less than 1000 nM.

Take `O=[N+]([O-])[O-].O=[N+]([O-])[O-].O=[N+]([O-])[O-].O=[N+]([O-])[O-].O=[N+]([O-])[O-].O=[N+]([O-])[O-].[NH3+][Pt-2]([NH3+])([n+]1ccc(-c2cc[n+]([Pt-2]34[n+]5ccccc5-c5cc(Cl)cc([n+]53)-c3cccc[n+]34)cc2)cc1)[n+]1ccc(-c2cc[n+]([Pt-2]34[n+]5ccccc5-c5cc(Cl)cc([n+]53)-c3cccc[n+]34)cc2)cc1` [I20, trans-Diamminebis(4,4'-dipyridyl)platinum(II) bis[(4'-chloro-2,2':6',2"-terpyridine)platinum(II)] hexanitrate]: in [5], the “resistance factors (RF)” value stood at 0.8. In addition, the IC50 (with CH1 cell line; in data set [1]) was less than 1000 nM in each case.

In the case of `Clc1cc2[n+]3c(c1)-c1cccc[n+]1[Pt-2]3([n+]1ccc(C#CC#Cc3cc[n+]([Pt-2]45[n+]6ccccc6-c6cc(Cl)cc([n+]64)-c4cccc[n+]45)cc3)cc1)[n+]1ccccc1-2.O=[N+]([O-])[O-].O=[N+]([O-])[O-].O=[N+]([O-])[O-].O=[N+]([O-])[O-]` [I15, 1,4-Bis(4-pyridyl)butadiyne bis[(4'-chloro-2,2':6'2"-terpyridine)platinum(II)] tetranitrate], in data set [6] (A2780cis^R cell line), the “times more effective than cisplatin” value was 13 times. Further, the “resistance factors (RF)” value in data set [6] (A2780cis^R versus A2780) was 1.1. The “antitumour activity compared with cisplatin” value with cell line SKOV3 [2] was “more effective than cisplatin”. This compound displayed an IC50 in the data set on cell line A2780 of less than 1000 nM. In addition, the “loss of body weight” value in data set [7] is recorded as “no loss of body weight”. The deaths result in [7] is “no deaths”. Besides, the results for the “signs of induced toxicity” value in data set [7] (50 mg/kg) and in data set [7] (100 mg/kg) were “not at 50 mg/kg” and “some indication of toxicity (mild ataxia/twitching)”, respectively.

On to `C(C#Cc1cc[n+]([Pt-2]23[n+]4ccccc4-c4cccc([n+]42)-c2cccc[n+]23)cc1)#Cc1cc[n+]([Pt-2]23[n+]4ccccc4-c4cccc([n+]42)-c2cccc[n+]23)cc1.O=[N+]([O-])[O-].O=[N+]([O-])[O-].O=[N+]([O-])[O-].O=[N+]([O-])[O-]` [A15, 1,4-Bis(4-pyridyl)butadiyne bis[(2,2':6',2"-terpyridine)platinum(II)] tetranitrate], for which, in data set [5], the “resistance factors (RF)” value was found to be 0.6. For the same compound, the IC50 (in the data set with CH1 cell line; in data set [1]) was less than 1000 nM each time. For the same compound, in data set [7], the “loss of body weight” value is “no loss of body weight”. Besides, in [7], the deaths entry is on record as “no deaths”. In data set [7] (100 mg/kg), the “signs of induced toxicity” value was “no sign of toxicity or body weight loss”.

What is called IC50 is the midpoint of a concentration-inhibition curve.

The values above are taken from patent EP1144423B1, “BIS-TERPYRIDINE-PLATINUM(II) COMPLEXES” (ISIS INNOVATION LIMITED, priority 1999, dated 2000).
